# Results as given in US20040180812A1, “Methods of treating and preventing proliferative disease” (Technology Center, priority 2002, published 2004).
# Read-outs that look alike come from different tables or passages of the source.
# Legend:
# [1] = test system: human U87 gliobastoma tumor xenografts
# Method: Glioblastoma cell line U-87 (ATCC) was cultured in 150 cm^2 polystyrene flasks (Fisher cat. no. 355001) in Alpha MEM media (Cellgro® cat. no. 15-012-CV) supplemented with 10% FBS, 1× non essential amino acids (Cellgro® cat. no. 25-025-Cl), 0.1% glucose (Sigma® cat. no. G8644), 2 mM L-glutamine (Gibco BRL® cat. no. 25030-081) and 0.2% sodium bicarbonate (Cellgro® cat. no. 25-035-Cl) to sub-confluence (80%). Prior to cell dissociation, the culture was washed once with 1×PBS (Bio Whittaker® cat. no. 16-006Y) and dissociated with trypsin free Cellstripper™ (Cellgro® cat. no. 25-056-Cl). Suspended cells were counted using the model Z1 Coulter® particle counter.
# Male mice (NCR-NU-M, Taconic®), 3-5 weeks old, were anesthetized with 0.2 mls Nembutal® (10 mg/ml in sterile water) subcutaneous in the back of the neck. Once anesthetized, each mouse was injected subcutaneous with 5×10^5 cells/0.2 ml in the right hind flank. Tumors were allowed to grow to 60 mm^3 prior to treatment. Tumor volume was calculated by the following formula from orthogonal measurements using Fisher Scientific® electronic digital calipers. [formula]
# Tumors were allowed to grow to a final volume of 2000 mm^3 where upon the treatment was terminated and the mice were sacrificed using a CO2 gas chamber.
# Treatment groups were evaluated for tumor growth delay. A 60 mg/kg/day solution of Plavix® (clopidogrel bisulfate) was prepared by crushing and dissolving 75 mg tablets in water (pH 1.0). The solute was filtered through a Nalgene® filtration unit (cat. no. 126-0020) and the pH raised to 1.78. Mice were gavaged daily with 0.2 ml solution of Plavix® and vehicle controls were gavaged daily with 0.2 ml acidified water pH 1.78.
# Prior to X-ray irradiation, mice were anesthetized with […] Ketamine HCl (Ketaset III®, Fort Dodge®) and […] Acepromazine Maleate (Phoenix pharmaceutical, Inc.) by subcutaneous injection in the back to the neck. Tumors on the right hind leg were exposed to 7.5 Gy three times on alternate days for one week using a Pantek X-ray irradiator.
# U-87 glioblastoma cells [2] = assay: Clonogenic assay; type: cell-based, human; settings: 25, 50, 100 μM, four hours exposure
# Method: (§1) U-87 glioblastoma cells and A-549 non-small cell lung cancer cells (American Type Culture Collection) were maintained in alpha MEM (Sigma) with 10% fetal bovine serum (Atlanta Biologicals). Tumor cell lines were expanded as a monolayer culture by serial passage on tissue culture plates in tumor media (alpha MEM with 10% fetal bovine serum).
# (§2) The effect of clopidogrel and Aggrenox™ on U-87 and A-549 survival was determined by preparing single cell suspensions from each cell culture. The cells were subjected to three concentrations of each drug (25, 50, or 100 μM) for four hours in medium. The suspensions were serially diluted with medium. The cells were then seeded in triplicate in 50 mm flasks. After 6 to 14 days of incubation, the cultures were stained with crystal violet and counted.
# U-87 tumor = test system: U-87 tumor
# Method: In order to evaluate the effect of clopidogrel on U-87 tumor growth rate, U-87 cell suspension was injected subcutaneously into the right hind limb (5×10^5 cells in 50 μl PBS) of athymic NCR NUM mice (Taconic Farms). The clopidogrel was added to the drinking water in concentrations of 0.135 (low), 0.180 (intermediate) or 0.225 mg/ml (high). This was equivalent to an oral dose of approximately 15, 20, or 25 mg/kg/day. Mice were not pretreated prior to tumor implantation. The mice were randomized to five groups (control, low, intermediate and high concentration and non-solubilized drug) with five mice per group.
# U-87 tumors were allowed to grow for approximately 10-14 days until reaching an approximate volume of 40-85 mm^3, before treatment. Tumor volume was determined daily by direct measurement with calipers and calculated by the formula [(smallest diameter^2×widest diameter)/2]. Daily weights were obtained.
# Polynomial regression lines were fit to the data for each individual mouse for 20-24 days. Means were taken at two-day intervals for mice in each group.
# U-87 cells were inoculated into the right hind limb of athymic NCR NUM mice. […] U-87 tumors were allowed to grow for approximately 10-14 days until reaching an approximate volume of 40-85 mm^3, before treatment. Clopidogrel was added to the drinking water in concentrations of 0.135 (low), 0.180 (intermediate) or 0.225 mg/ml (high). This was equivalent to an oral dose of approximately 15, 20, or 25 mg/kg/day. Tumor dimensions and animal weights were taken daily.
# [3] = test system: A-549 non-small cell lung cancer cells; assay: In-vitro determination of proliferation (Coulter counter); type: cell-based
# Method: as §1
# (§3) The cell doubling time was determined for both U-87 and A-549 tumor cells. A total of 1×10^6 Cells from resting culture were seeded in 50 mm flasks with medium and allowed to adhere for approximately Three hours. Clopidogrel and Aggrenox™ were then added in concentrations of 25, 50, or 100 μM. After further incubation for four hours, controls and treated dishes were trypsinized and counted in a Coulter Counter ZM. This count served as the starting count for proliferation and confirmed similar cell adhesion in each series. Cells were then counted every 24 hours for a total of 96 hours.
# [4] = test system: A-549 non-small cell lung cancer cells; assay: Clonogenic assay; type: cell-based; settings: 25, 50, 100 μM, four hours exposure
# Method: as §1, §2
# U-87 glioblastoma cells [5] = assay: In-vitro determination of proliferation (Coulter counter); type: cell-based, human
# Method: as §1, §3
# [6] = highest concentration 100 μM, counted every 24 h for 96 h
smiles,measurement,setting,value
"COC(=O)[C@H](c1ccccc1Cl)N1CCc2sccc2C1 [clopidogrel, clopidogrel bisulfate]",Tumor growth Delay (Experiment 1),[1]; Plavix alone,5 days
same,Tumor growth Delay (Experiment 2),[1]; Plavix alone,5 days
same,tumor growth delay (TGD),"[1]; Plavix alone, 60 mg/kg/day gavage",5 days
same,Tumor growth Delay (Experiment 2),[1]; Radiation plus Plavix,16 days
same,tumor growth delay (TGD),[1]; radiation (7.5 Gy three times) and Plavix 60 mg/kg/day combined,16 days
same,TGD more than radiation alone,[1]; radiation and Plavix combined versus radiation alone,4 days
same,U-87 clonogenic cell survival compared with Aggrenox results,U-87 glioblastoma cells [2],exaggerated
same,dose response of tumor growth delay,"U-87 tumor; 0.135, 0.180, 0.225 mg/ml in drinking water",A dose response was noted
same,tumor growth delay,"U-87 tumor; highest concentration 0.225 mg/ml in drinking water, approx. 25 mg/kg/day oral",much more dramatic
same,tumor growth delay,"U-87 tumor; lowest concentration 0.135 mg/ml in drinking water, approx. 15 mg/kg/day oral",small growth delay
same,A-549 cell proliferation,[3]; [6],even more drastically inhibited
same,cell proliferation (A-549),[3]; lowest concentration (25 μM),did not significantly affect cell proliferation
same,A-549 clonogenic cell survival compared with Aggrenox results,[4],exaggerated
same,proliferation of U-87 cells,U-87 glioblastoma cells [5]; [6],considerably inhibited
same,cell proliferation (U-87),U-87 glioblastoma cells [5]; lowest concentration (25 μM),did not significantly affect cell proliferation
